pEC50: −log10 of the molar value. Numbered stars: 1 amine (or outer) side, 2 acyl side, 3 side chain; on linkers, the order of the positions; unused ones are H or OH. Square brackets hold non-standard residues; d marks the D form. Side chains are listed from the residue outwards. Peptide text beside a SMILES is read from it. * marks the point of attachment. C18 diacid = O=C(O)CCCCCCCCCCCCCCCCC(=O)*; γGlu = O=C(O)[C@H](CCC(=O)[*:2])N[*:1]; Ac4c = NC1(C(=O)O)CCC1; AEEA = NCCOCCOCC(=O)O; Aib = CC(C)(N)C(=O)O
Molecular target: T1, human glucagon receptor (Homo sapiens, UniProt P47871)
T1 construct: expressed in transfected cells; host or cells: BHK cells (parent BHK570, CRE luciferase clone BHK/KZ10-20-48), clone pLJ6'-4-25
Assay: Glucagon receptor potency, CRE luciferase reporter gene assay in BHK cells
Assay type: cell-based
Conditions: BHK cells expressing human glucagon receptor, read-out: EC50 GlucR
Summary of the method: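 EC50 (pM) comes from a four-parameter fit of luciferase luminescence after 3 h at 37 °C with compound at final 1×10EE-13–1×10EE-6 M. Cells: BHK570-derived line carrying human glucagon receptor plus CRE-luciferase, 5×10EE3/well, in assay medium with 2% ovalbumin, 0.2% Pluronic F-68.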

T1 sequence (P47871 26-477): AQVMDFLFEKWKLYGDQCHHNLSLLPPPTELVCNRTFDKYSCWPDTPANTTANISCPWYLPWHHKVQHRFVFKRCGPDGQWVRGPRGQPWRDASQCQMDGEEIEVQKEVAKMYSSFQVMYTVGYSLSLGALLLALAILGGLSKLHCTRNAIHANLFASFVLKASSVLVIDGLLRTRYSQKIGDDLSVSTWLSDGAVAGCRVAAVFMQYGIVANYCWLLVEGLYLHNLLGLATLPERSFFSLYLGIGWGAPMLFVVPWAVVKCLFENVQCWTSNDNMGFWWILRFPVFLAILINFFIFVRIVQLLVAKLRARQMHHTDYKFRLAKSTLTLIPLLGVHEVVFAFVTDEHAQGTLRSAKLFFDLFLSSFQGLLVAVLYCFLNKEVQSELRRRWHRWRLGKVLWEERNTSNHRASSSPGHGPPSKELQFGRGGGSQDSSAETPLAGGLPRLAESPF

In order of rising pEC50:
1. CC(C)C[C@H](NC(=O)[C@H](CC(=O)O)NC(=O)[C@H](CC(C)C)NC(=O)[C@H](Cc1ccc(O)cc1)NC(=O)[C@H](CCCNC(=N)N)NC(=O)[C@H](CO)NC(=O)[C@H](CC(C)C)NC(=O)[C@H](CC(=O)O)NC(=O)[C@H](CO)NC(=O)[C@@H](NC(=O)[C@H](Cc1ccccc1)NC(=O)[C@@H](NC(=O)CNC(=O)[C@H](CCC(N)=O)NC(=O)C1(NC(=O)[C@@H](N)Cc2c[nH]cn2)CCC1)[C@@H](C)O)[C@@H](C)O)C(=O)N[C@@H](CCCNC(=N)N)C(=O)N[C@@H](CCCNC(=N)N)C(=O)N[C@@H](C)C(=O)N[C@@H](CCCNC(=N)N)C(=O)N[C@@H](CC(=O)O)C(=O)N[C@@H](Cc1ccccc1)C(=O)N[C@H](C(=O)N[C@@H](CCC(N)=O)C(=O)N[C@@H](Cc1c[nH]c2ccccc12)C(=O)N[C@@H](CC(C)C)C(=O)N[C@@H](CC(C)C)C(=O)N[C@@H](CCCCNC(=O)CC[C@H](NC(=O)CC[C@H](NC(=O)COCCOCCNC(=O)COCCOCCNC(=O)CC[C@H](NC(=O)CC[C@H](NC(=O)CCCCCCCCCCCCCCCCC(=O)O)C(=O)O)C(=O)O)C(=O)O)C(=O)O)C(=O)N[C@H](C(N)=O)[C@@H](C)O)C(C)C [Example 46, N^ε28-[(4S)-4-carboxy-4-[[(4S)-4-carboxy-4-[[2-[2-[2-[[2-[2-[2-[[(4S)-4-carboxy-4-[[(4S)-4-carboxy-4-(17-carboxyheptadecanoylamino)butanoyl]amino]butanoyl]amino]ethoxy]ethoxy]acetyl]amino]ethoxy]ethoxy]acetyl]amino]butanoyl]amino]butanoyl]-[Acb2,Leu10,Arg12,Leu16,Arg20,Leu27,Lys28]-Glucagon amide] (H-H[Ac4c]QGTFTSDLSRYLDLRRARDFVQWLLK([γGlu-γGlu-AEEA-AEEA-γGlu-γGlu-C18 diacid])T-NH2; N-terminus assumed)  10.80
2. CC(C)C[C@H](NC(=O)[C@H](Cc1ccc(O)cc1)NC(=O)[C@H](CCCCN)NC(=O)[C@H](CO)NC(=O)[C@H](CC(C)C)NC(=O)[C@H](CC(=O)O)NC(=O)[C@H](CO)NC(=O)[C@@H](NC(=O)[C@H](Cc1ccccc1)NC(=O)[C@@H](NC(=O)CNC(=O)[C@H](CCC(N)=O)NC(=O)C(C)(C)NC(=O)[C@@H](N)Cc1c[nH]cn1)[C@@H](C)O)[C@@H](C)O)C(=O)N[C@@H](CCC(=O)O)C(=O)N[C@@H](CO)C(=O)N[C@@H](CCCCN)C(=O)N[C@@H](CCCNC(=N)N)C(=O)N[C@@H](C)C(=O)N[C@@H](CCCNC(=N)N)C(=O)N[C@@H](CCC(=O)O)C(=O)N[C@@H](Cc1ccccc1)C(=O)N[C@H](C(=O)N[C@@H](CCC(N)=O)C(=O)N[C@@H](Cc1c[nH]c2ccccc12)C(=O)N[C@@H](CC(C)C)C(=O)N[C@@H](CC(C)C)C(=O)N[C@@H](CCCCNC(=O)CC[C@H](NC(=O)CC[C@H](NC(=O)[C@H](CO)NC(=O)[C@H](CCC(=O)O)NC(=O)[C@H](CO)NC(=O)CC[C@H](NC(=O)CC[C@H](NC(=O)CCCCCCCCCCCCCCCCC(=O)O)C(=O)O)C(=O)O)C(=O)O)C(=O)O)C(=O)N[C@H](C(N)=O)[C@@H](C)O)C(C)C [Example 52] (H-H[Aib]QGTFTSDLSKYLESKRAREFVQWLLK([γGlu-γGlu-Ser-Glu-Ser-γGlu-γGlu-C18 diacid])T-NH2; N-terminus assumed)  10.80
3. CC(C)C[C@H](NC(=O)[C@H](Cc1ccc(O)cc1)NC(=O)[C@H](CCCCN)NC(=O)[C@H](CO)NC(=O)[C@H](CC(C)C)NC(=O)[C@H](CC(=O)O)NC(=O)[C@H](CO)NC(=O)[C@@H](NC(=O)[C@H](Cc1ccccc1)NC(=O)[C@@H](NC(=O)CNC(=O)[C@H](CCC(N)=O)NC(=O)C1(NC(=O)[C@@H](N)Cc2c[nH]cn2)CCC1)[C@@H](C)O)[C@@H](C)O)C(=O)N[C@@H](CCC(=O)O)C(=O)N[C@@H](CO)C(=O)N[C@@H](CCCNC(=N)N)C(=O)N[C@@H](CCCNC(=N)N)C(=O)N[C@@H](C)C(=O)N[C@@H](CCCNC(=N)N)C(=O)N[C@@H](CCC(=O)O)C(=O)N[C@@H](Cc1ccccc1)C(=O)N[C@H](C(=O)N[C@@H](CCC(N)=O)C(=O)N[C@@H](Cc1c[nH]c2ccccc12)C(=O)N[C@@H](CC(C)C)C(=O)N[C@@H](CC(C)C)C(=O)N[C@@H](CCCCNC(=O)CC[C@H](NC(=O)CC[C@H](NC(=O)COCCOCCNC(=O)COCCOCCNC(=O)CC[C@H](NC(=O)CCCCCCCCCCCCCCCCC(=O)O)C(=O)O)C(=O)O)C(=O)O)C(=O)N[C@H](C(N)=O)[C@@H](C)O)C(C)C [Example 44, N^ε28-[(4S)-4-carboxy-4-[[(4S)-4-carboxy-4-[[2-[2-[2-[[2-[2-[2-[[(4S)-4-carboxy-4-(17-carboxyheptadecanoylamino)butanoyl]amino]ethoxy]ethoxy]acetyl]amino]ethoxy]ethoxy]acetyl]amino]butanoyl]amino]butanoyl]-[Acb2,Leu10,Glu15,Arg20,Glu21,Leu27,Lys28]-Glucagon amide] (H-H[Ac4c]QGTFTSDLSKYLESRRAREFVQWLLK([γGlu-γGlu-AEEA-AEEA-γGlu-C18 diacid])T-NH2; N-terminus assumed)  11.00
4. CC(C)C[C@H](NC(=O)[C@H](CC(=O)O)NC(=O)[C@H](CC(C)C)NC(=O)[C@H](Cc1ccc(O)cc1)NC(=O)[C@H](CCCCN)NC(=O)[C@H](CO)NC(=O)[C@H](CC(C)C)NC(=O)[C@H](CC(=O)O)NC(=O)[C@H](CO)NC(=O)[C@@H](NC(=O)[C@H](Cc1ccccc1)NC(=O)[C@@H](NC(=O)CNC(=O)[C@H](CCC(N)=O)NC(=O)C1(NC(=O)[C@@H](N)Cc2c[nH]cn2)CCC1)[C@@H](C)O)[C@@H](C)O)C(=O)N[C@@H](CCCCN)C(=O)N[C@@H](CCCNC(=N)N)C(=O)N[C@@H](C)C(=O)N[C@@H](CCCNC(=N)N)C(=O)N[C@@H](CCC(=O)O)C(=O)N[C@@H](Cc1ccccc1)C(=O)N[C@H](C(=O)N[C@@H](CCC(N)=O)C(=O)N[C@@H](Cc1c[nH]c2ccccc12)C(=O)N[C@@H](CC(C)C)C(=O)N[C@@H](CC(C)C)C(=O)N[C@@H](CCCCNC(=O)CC[C@H](NC(=O)CC[C@H](NC(=O)COCCOCCNC(=O)COCCOCCNC(=O)CC[C@H](NC(=O)CC[C@H](NC(=O)CCCCCCCCCCCCCCCCC(=O)O)C(=O)O)C(=O)O)C(=O)O)C(=O)O)C(=O)N[C@H](C(N)=O)[C@@H](C)O)C(C)C [Example 47, N^ε28-[(4S)-4-carboxy-4-[[(4S)-4-carboxy-4-[[2-[2-[2-[[2-[2-[2-[[(4S)-4-carboxy-4-[[(4S)-4-carboxy-4-(17-carboxyheptadecanoylamino)butanoyl]amino]butanoyl]amino]ethoxy]ethoxy]acetyl]amino]ethoxy]ethoxy]acetyl]amino]butanoyl]amino]butanoyl]-[Acb2,Leu10,Leu16,Lys17,Arg20,Glu21,Leu27,Lys28]-Glucagon amide] (H-H[Ac4c]QGTFTSDLSKYLDLKRAREFVQWLLK([γGlu-γGlu-AEEA-AEEA-γGlu-γGlu-C18 diacid])T-NH2; N-terminus assumed)  11.30
5. CC(C)C[C@H](NC(=O)[C@H](CC(=O)O)NC(=O)[C@H](CC(C)C)NC(=O)[C@H](Cc1ccc(O)cc1)NC(=O)[C@H](CCCCN)NC(=O)[C@H](CO)NC(=O)[C@H](CC(C)C)NC(=O)[C@H](CC(=O)O)NC(=O)[C@H](CO)NC(=O)[C@@H](NC(=O)[C@H](Cc1ccccc1)NC(=O)[C@@H](NC(=O)CNC(=O)[C@H](CCC(N)=O)NC(=O)C1(NC(=O)[C@@H](N)Cc2c[nH]cn2)CCC1)[C@@H](C)O)[C@@H](C)O)C(=O)N[C@@H](CCCNC(=N)N)C(=O)N[C@@H](CCCNC(=N)N)C(=O)N[C@@H](C)C(=O)N[C@@H](CCCNC(=N)N)C(=O)N[C@@H](CCC(=O)O)C(=O)N[C@@H](Cc1ccccc1)C(=O)N[C@H](C(=O)N[C@@H](CCC(N)=O)C(=O)N[C@@H](Cc1c[nH]c2ccccc12)C(=O)N[C@@H](CC(C)C)C(=O)N[C@@H](CC(C)C)C(=O)N[C@@H](CCCCNC(=O)CC[C@H](NC(=O)CC[C@H](NC(=O)COCCOCCNC(=O)COCCOCCNC(=O)CC[C@H](NC(=O)CC[C@H](NC(=O)CCCCCCCCCCCCCCCCC(=O)O)C(=O)O)C(=O)O)C(=O)O)C(=O)O)C(=O)N[C@H](C(N)=O)[C@@H](C)O)C(C)C [Example 49, N^ε28-[(4S)-4-carboxy-4-[[(4S)-4-carboxy-4-[[2-[2-[2-[[2-[2-[2-[[(4S)-4-carboxy-4-[[(4S)-4-carboxy-4-(17-carboxyheptadecanoylamino)butanoyl]amino]butanoyl]amino]ethoxy]ethoxy]acetyl]amino]ethoxy]ethoxy]acetyl]amino]butanoyl]amino]butanoyl]-[Acb2,Leu10,Leu16,Arg20,Glu21,Leu27,Lys28]-Glucagon amide] (H-H[Ac4c]QGTFTSDLSKYLDLRRAREFVQWLLK([γGlu-γGlu-AEEA-AEEA-γGlu-γGlu-C18 diacid])T-NH2; N-terminus assumed)  11.40
6. CC(C)C[C@H](NC(=O)[C@H](Cc1c[nH]c2ccccc12)NC(=O)[C@H](CCC(N)=O)NC(=O)[C@@H](NC(=O)[C@H](Cc1ccccc1)NC(=O)[C@H](CCC(=O)O)NC(=O)[C@H](CCCNC(=N)N)NC(=O)[C@H](C)NC(=O)[C@H](CCCNC(=N)N)NC(=O)[C@H](CCCNC(=N)N)NC(=O)C(C)(C)NC(=O)[C@H](CC(=O)O)NC(=O)[C@H](CC(C)C)NC(=O)[C@H](Cc1ccc(O)cc1)NC(=O)[C@H](CCCCN)NC(=O)[C@H](CO)NC(=O)[C@H](CC(C)C)NC(=O)[C@H](CC(=O)O)NC(=O)[C@H](CO)NC(=O)[C@@H](NC(=O)[C@H](Cc1ccccc1)NC(=O)[C@@H](NC(=O)CNC(=O)[C@H](CCC(N)=O)NC(=O)C(C)(C)NC(=O)[C@@H](N)Cc1c[nH]cn1)[C@@H](C)O)[C@@H](C)O)C(C)C)C(=O)N[C@@H](CC(C)C)C(=O)N[C@@H](CCCCNC(=O)CC[C@H](NC(=O)CC[C@H](NC(=O)COCCOCCNC(=O)COCCOCCNC(=O)CC[C@H](NC(=O)CCCCCCCCCCCCCCCCC(=O)O)C(=O)O)C(=O)O)C(=O)O)C(=O)N[C@H](C(N)=O)[C@@H](C)O [Example 51, N^ε28-[(4S)-4-carboxy-4-[[(4S)-4-carboxy-4-[[2-[2-[2-[[2-[2-[2-[[(4S)-4-carboxy-4-(17-carboxyheptadecanoylamino)butanoyl]amino]ethoxy]ethoxy]acetyl]amino]ethoxy]ethoxy]acetyl]amino]butanoyl]amino]butanoyl]-[Aib2,Leu10,Aib16,Arg20,Glu21,Leu27,Lys28]-Glucagon amide] (H-H[Aib]QGTFTSDLSKYLD[Aib]RRAREFVQWLLK([γGlu-γGlu-AEEA-AEEA-γGlu-C18 diacid])T-NH2; N-terminus assumed)  11.40

Source: US9474790B2, “Stable, protracted GLP-1/glucagon receptor co-agonists for medical use” (Novo Nordisk A/S, priority 2013, dated 2016)
